According to PubChem BioAssay (NCI):
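Values below derive from 48-hour exposures of cells grown in 96-well plates, with endpoints linearly interpolated between the two concentrations bracketing the appropriate inhibition level. The concentration for 50% growth inhibition is given as GI50. Definition used: TGI = concentration required for complete inhibition of growth.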

What was measured:
Assay in all cases: NCI-60 cell line screen, 48 h
MALME-3M melanoma = tested on: MALME-3M melanoma
LOX IMVI melanoma = tested on: LOX IMVI melanoma
NCI-H226 lung = tested on: NCI-H226 lung
NCI-H460 lung = tested on: NCI-H460 lung
K-562 leukemia = tested on: K-562 leukemia
MOLT-4 leukemia = tested on: MOLT-4 leukemia
M14 melanoma = tested on: M14 melanoma
CCRF-CEM leukemia = tested on: CCRF-CEM leukemia

| Compound | TGI (MALME-3M melanoma) [µM] | TGI (LOX IMVI melanoma) [µM] | TGI (NCI-H226 lung) [µM] | TGI (NCI-H460 lung) [µM] | TGI (K-562 leukemia) [µM] | TGI (MOLT-4 leukemia) [µM] | TGI (M14 melanoma) [µM] | TGI (CCRF-CEM leukemia) [µM] | GI50 (MALME-3M melanoma) [µM] | GI50 (LOX IMVI melanoma) [µM] | GI50 (K-562 leukemia) [µM] | GI50 (MOLT-4 leukemia) [µM] | GI50 (M14 melanoma) [µM] | GI50 (NCI-H226 lung) [µM] | GI50 (CCRF-CEM leukemia) [µM] | GI50 (NCI-H460 lung) [µM] |
| --- | --- | --- | --- | --- | --- | --- | --- | --- | --- | --- | --- | --- | --- | --- | --- | --- |
| CCCCCCCCCCCCCCC(C)CCC(=O)O (stereo not drawn) | > 100 | > 100 | > 100 | > 100 |  |  |  |  |  |  |  |  |  |  |  |  |
| CN(C)c1ccc(O[Si](Oc2ccc(N(C)C)cc2)(Oc2ccc(N(C)C)cc2)Oc2ccc(N(C)C)cc2)cc1 | > 100 | > 100 | > 100 |  | > 100 | > 100 | > 100 | > 100 |  |  |  |  |  |  |  |  |
| c1ccc2c3c([nH]c2c1)C1C2CCCCN2C(c2ccncc2)N1CC3 (stereo not drawn) | > 100 | > 100 |  | > 100 | > 100 | > 100 | > 100 | > 100 |  |  |  |  |  |  |  |  |
| COc1ccc2c(c1)[n+](=O)c(C(C)=O)c(C)n2[O-] | > 100 | > 100 | > 100 | > 100 | > 100 | > 100 | > 100 |  |  |  |  |  |  |  |  |  |
| [Cl-].[Gd+3].[O-]/N=C(\c1ccccc1)c1ccccn1.[O-]/N=C(\c1ccccc1)c1ccccn1.[O-]/N=C(\c1ccccc1)c1ccccn1 | > 100 | 76.5 | > 100 | > 100 | > 100 | > 100 | > 100 | > 100 | 95.8 | 28.5 | 65 | 40.5 | 51.4 | 40.4 | 34.3 | 50.7 |
| CC(=O)[O-].[Mn+3].[O-]c1ccc(Cl)cc1C=NCCN=Cc1cc(Cl)ccc1[O-] | > 100 | > 100 | > 100 | > 100 | > 100 | > 100 | > 100 | > 100 | 34.7 | 38.6 | > 100 | > 100 | 71.6 | > 100 | 22.2 | > 100 |
| Cc1nc(-n2nc(-c3ccccc3)cc2-c2ccccc2)sc1C(=O)/C=C/c1ccccc1 | > 100 | > 100 |  | > 100 | > 100 | > 100 |  | > 100 |  |  |  |  |  |  |  |  |
| NNC(=O)N/N=C1\CN(c2ccc(Cl)cc2Cl)C(=O)C(=O)C1c1nc2ccccc2o1 (stereo not drawn) | > 100 |  | > 100 | > 100 | > 100 | > 100 | > 100 | > 100 |  |  |  |  |  |  |  |  |
| O=C1CNN=C(Cn2nc(-c3ccccc3)c3ccccc3c2=O)N1 | > 100 |  | > 100 | > 100 | > 100 | > 100 | > 100 | > 100 |  |  |  |  |  |  |  |  |
| COc1ccc(-c2cc(-c3ccco3)c(C#N)c(=O)[nH]2)cc1 | 75.7 | > 100 | > 100 | > 100 | > 100 | > 100 | > 100 | > 100 |  |  |  |  |  |  |  |  |
| COC(=O)c1sc(=NC(=S)N2CCCCC2)sc1C(=O)OC | > 100 |  | > 100 | > 100 | > 100 | > 100 | > 100 | > 100 |  |  |  |  |  |  |  |  |
| Nc1ccc(C(=O)/C=C/c2ccccc2O)cc1 | > 100 | > 100 | > 100 | > 100 | > 100 | > 100 | > 100 | > 100 |  |  |  |  |  |  |  |  |
| COc1cc(CCc2ccc(OC(C)=O)cc2)cc(OC)c1OC | > 100 | > 100 | > 100 | > 100 | > 100 | > 100 | > 100 | > 100 |  |  |  |  |  |  |  |  |
| O=c1cccccc1[O-].O=c1cccccc1[O-].O=c1cccccc1[O-].[Sm+3] | > 100 | > 100 | > 100 | > 100 | > 100 | > 100 | > 100 | > 100 |  |  |  |  |  |  |  |  |
| O=C(CC1=Nc2nnc(-c3nnc4n3C(=O)C(CC(=O)C3CC3)=N4)n2C1=O)C1CC1 | > 100 | > 100 | > 100 | > 100 | > 100 | > 100 | > 100 | > 100 |  |  |  |  |  |  |  |  |
| CCOc1ccccc1NC(=O)C1=C(C)NC(C)=C(C(=O)Nc2ccccc2OCC)C1c1ccc([N+](=O)[O-])cc1 | > 100 |  | > 100 | > 100 |  |  | > 100 |  |  |  |  |  |  |  |  |  |
| O=C(/C=C(\[O-])c1ccccc1)CCCCCCC(=O)/C=C(\[O-])c1ccccc1.O=C(/C=C(\[O-])c1ccccc1)CCCCCCC(=O)/C=C(\[O-])c1ccccc1.O=C(/C=C(\[O-])c1ccccc1)CCCCCCC(=O)/C=C(\[O-])c1ccccc1.[Nd+3].[Nd+3] | > 50 | > 50 | > 50 | > 50 | > 50 | > 50 | > 50 |  | > 50 | > 50 | > 50 | 27.5 | > 50 | > 50 |  | > 50 |
| COCC1N=C(c2cc(OC)c(OC)c(OC)c2-c2cc3c(cc2[C@H](C)O)OCO3)O[C@H]1c1ccccc1 (stereo partly drawn) |  | > 100 | > 100 |  | > 10 | > 100 | > 100 | > 10 |  |  |  |  |  |  |  |  |
